From ChEMBL document CHEMBL1141627, “A cell-penetrating peptidic GRP78 ligand for tumor cell-specific prodrug therapy” (Bioorg Med Chem Lett, 2008)
Positions of bridges follow the written chain, without caps; N, C: chain ends. Non-standard residues stand in square brackets, D forms with d. Residues, ends and D or L forms follow the SMILES beside them. *: point of attachment. X1 = CC(=O)O[C@H]1C(=O)[C@@]2(C)[C@H]([C@H](OC(=O)c3ccccc3)[C@]3(O)C[C@H](OC(=O)[C@H](OC(=O)OCc4ccc(N*)cc4)[C@@H](NC(=O)c4ccccc4)c4ccccc4)C(C)=C1C3(C)C)[C@]1(OC(C)=O)CO[C@@H]1C[C@@H]2O; Cit = NC(=O)NCCC[C@H](N)C(=O)O

Tested on: SJSA-1
Assay: Cytotoxicity against human SJSA1 cells expressing GRP78 after 6 hrs by MTT assay
Format: functional, cell-based
Details: SJSA-1, 6 h

Structure (SMILES) | IC50 [nM]
COc1cccc2c1C(=O)c1c(O)c3c(c(O)c1C2=O)C[C@@](O)(C(=O)CO)C[C@@H]3O[C@H]1C[C@H](N)[C@H](O)[C@H](C)O1 [DOXORUBICIN] | 6.2
CC(=O)N[C@H]1CSSC[C@@H](C(=O)N[C@H](C(=O)N[C@@H](CCCNC(N)=O)C(=O)N[C@H](C(=O)N[C@@H](CCCNC(N)=O)C(=O)Nc2ccc(COC(=O)O[C@@H](C(=O)O[C@H]3C[C@@]4(O)[C@@H](OC(=O)c5ccccc5)[C@@H]5[C@]6(OC(C)=O)CO[C@@H]6C[C@H](O)[C@@]5(C)C(=O)[C@H](OC(C)=O)C(=C3C)C4(C)C)[C@@H](NC(=O)c3ccccc3)c3ccccc3)cc2)C(C)C)C(C)C)NC(=O)[C@H](C(C)C)NC(=O)[C@H](CCCNC(=N)N)NC(=O)[C@H](C(C)C)NC(=O)[C@H](Cc2ccc(O)cc2)NC(=O)CNC(=O)CNC(=O)[C@@H]2CCCN2C(=O)[C@H](CC(C)C)NC(=O)[C@H](C)NC(=O)[C@H](C(C)C)NC(=O)[C@H]([C@@H](C)O)NC1=O (Ac-CTVALPGGYVRVCV[Cit]V[Cit]-X1; disulfide 1-13) | 1.1
CC(=O)O[C@H]1C(=O)[C@@]2(C)[C@H]([C@H](OC(=O)c3ccccc3)[C@]3(O)C[C@H](OC(=O)[C@H](O)[C@@H](NC(=O)c4ccccc4)c4ccccc4)C(C)=C1C3(C)C)[C@]1(OC(C)=O)CO[C@@H]1C[C@@H]2O [PACLITAXEL] | 3.2
